Data as given in the C3SDB collision cross section collection.
Where “and” joins values, the source holds several entries; their conditions need not be identical. Identical values can stand only once.

Settings: instrument: DT, single field, calibrated with Agilent tune mix (Agilent)

SMILES: N[C@@H](Cc1ccc(O)c(I)c1)C(=O)O [3-Iodo-L-tyrosine]
- collision cross section (N2) ([M+H]+): 158.8 Å²
- collision cross section (N2) ([M+Na-2H]-): 148.03 Å²

SMILES: CC(CCC(=O)O)CC(=O)O (stereo not given) [3-Methyladipic acid]
- collision cross section (N2) ([M-H]-): 129.01 Å²

SMILES: CC(C)CC(=O)SCCNC(=O)CCNC(=O)[C@H](O)C(C)(C)COP(=O)(O)OP(=O)(O)OC[C@H]1O[C@@H](n2cnc3c(N)ncnc32)[C@H](O)[C@@H]1OP(=O)(O)O [3-Methylbutanoyl-CoA]
- collision cross section (N2) ([M-H]-): 255.72 Å²

SMILES: O=C(O)CCc1ccccc1 [3-Phenylpropanoic acid]
- collision cross section (N2) ([M-H]-): 135.74 Å²

SMILES: NC(=O)NCCC(=O)O [3-Ureidopropionate]
- collision cross section (N2) ([M+Na]+): 132.3 Å²

SMILES: C[C@]12CC[C@@H](O)C[C@@H]1CC[C@@H]1[C@@H]2CC[C@]2(C)C(=O)CC[C@@H]12 [3alpha-Hydroxy-5alpha-androstan-17-one]
- collision cross section (N2) ([M-H]-): 176.71 Å²

SMILES: O=C(O)/C=C/c1ccc(O)cc1 [4-Hydroxycinnamic acid]
- collision cross section (N2) ([M+H-H2O]+): 127 Å²
- collision cross section (N2) ([M-H]-): 129.27 Å²

SMILES: CC1=C(/C=C/C(C)=C/C=C/C(C)=C/CO)C(C)(C)CCC1=O [4-Oxoretinol]
- collision cross section (N2) ([M+H-H2O]+): 173.3 Å²

SMILES: Cc1ncc(CO)c(C(=O)O)c1O [4-Pyridoxic acid]
- collision cross section (N2) ([M+H]+): 135.3 Å² and 135.8 Å²

SMILES: NCCCCC(=O)O [5-Aminopentanoic acid]
- collision cross section (N2) ([M+H]+): 121.3 Å²
- collision cross section (N2) ([M-H]-): 124.49 Å²

SMILES: NC[C@H](O)CC[C@H](N)C(=O)O [5-Hydroxy-L-lysine]
- collision cross section (N2) ([M+H]+): 135.1 Å²
- collision cross section (N2) ([M-H]-): 131.7 Å²

SMILES: O=C(O)Cc1c[nH]c2ccc(O)cc12 [5-Hydroxyindoleacetate]
- collision cross section (N2) ([M+H]+): 140.9 Å²

SMILES: OCCc1c[nH]c2ccc(O)cc12 [5-Hydroxytryptophol]
- collision cross section (N2) ([M+H]+): 138.7 Å²
- collision cross section (N2) ([M-H]-): 134.49 Å²

SMILES: C[C@H](NC(=O)CC[C@H](N)C(=O)O)C(=O)O [5-L-Glutamyl-L-alanine]
- collision cross section (N2) ([M+H]+): 149.6 Å²
- collision cross section (N2) ([M-H]-): 140.25 Å²

SMILES: COc1ccc2[nH]cc(CCN(C)C)c2c1 [5-Methoxydimethyltryptamine]
- collision cross section (N2) ([M+H]+): 151.5 Å²
- collision cross section (N2) ([M-H]-): 153.76 Å²

SMILES: COc1ccc2[nH]cc(CC(=O)O)c2c1 [5-Methoxyindoleacetate]
- collision cross section (N2) ([M+H]+): 144 Å²

SMILES: COc1ccc2[nH]cc(C[C@H](N)C(=O)O)c2c1 [5-methoxytryptophan]
- collision cross section (N2) ([M+Na]+): 156.2 Å²
- collision cross section (N2) ([M-H]-): 154.36 Å²

SMILES: C[C@]12CCC(=O)C=C1CC[C@@H]1[C@@H]2CC[C@@]2(C)[C@H]1CC[C@]2(O)C(=O)CO [11-Deoxycortisol]
- collision cross section (N2) ([M-H]-): 183.12 Å²

SMILES: CC(=O)[C@H]1CC[C@H]2[C@@H]3CCC4=CC(=O)CC[C@]4(C)[C@H]3[C@@H](O)C[C@]12C [11beta-Hydroxyprogesterone]
- collision cross section (N2) ([M+H]+): 182.3 Å²
- collision cross section (N2) ([M-H2O-H]-): 180.95 Å²

SMILES: CCCCC/C=C/C=C1/C(=O)C=C[C@@H]1C/C=C\CCCC(=O)O [15-Deoxy-delta-12,14-PGJ2]
- collision cross section (N2) ([M+Na]+): 192.5 Å²

SMILES: C[C@H](CCCC(C)(C)O)[C@H]1CC[C@H]2[C@@H]3CC=C4C[C@@H](O)CC[C@]4(C)[C@H]3CC[C@]12C [25-Hydroxycholesterol]
- collision cross section (N2) ([M-H]-): 202.81 Å²

SMILES: CCCCC/C=C\C/C=C\C/C=C\CCCCC(=O)O [(6,9,12)-Linolenic acid]
- collision cross section (N2) ([M+H]+): 174.1 Å²

SMILES: CC(=O)OP(=O)(O)O [Acetyl phosphate]
- collision cross section (N2) ([M+Na]+): 142.7 Å²

SMILES: CC(=O)SCCNC(=O)CCNC(=O)[C@H](O)C(C)(C)COP(=O)(O)OP(=O)(O)OC[C@H]1O[C@@H](n2cnc3c(N)ncnc32)[C@H](O)[C@@H]1OP(=O)(O)O [Acetyl-CoA]
- collision cross section (N2) ([M+H]+): 244.7 Å²

SMILES: Nc1ncnc2c1ncn2[C@@H]1O[C@@H]2COP(=O)(O)O[C@H]2[C@H]1O [Adenosine 3',5'-cyclic phosphate]
- collision cross section (N2) ([M+H]+): 176.8 Å²

SMILES: Nc1ncnc2c1ncn2[C@@H]1O[C@H](COP(=O)(O)OP(=O)(O)OP(=O)(O)O)[C@@H](O)[C@H]1O [Adenosine 5'-triphosphate]
- collision cross section (N2) ([M+H]+): 196.4 Å²
- collision cross section (N2) ([M-H]-): 185.74 Å²

SMILES: Nc1ncnc2c1ncn2[C@@H]1O[C@H](COP(=O)(O)O)[C@@H](O)[C@H]1O [Adenosine monophosphate (AMP)]
- collision cross section (N2) ([M+H]+): 171.4 Å²

SMILES: O=C(O)CCCCC(=O)O [Adipic acid]
- collision cross section (N2) ([M+Na-2H]-): 129.61 Å²

SMILES: O=P(O)(O)OC[C@H]1O[C@H](OP(=O)(O)O)[C@H](O)[C@@H](O)[C@@H]1O [Alpha-D-Glucose 1,6-bisphosphate]
- collision cross section (N2) ([M+Na-2H]-): 159.11 Å²

SMILES: OC[C@H]1O[C@H](O)[C@H](O)[C@@H](O)[C@@H]1O [Alpha-D-Glucose]
- collision cross section (N2) ([M+Na]+): 146.2 Å²

SMILES: C[C@]12CCC(=O)C=C1CC[C@@H]1[C@@H]2CC[C@]2(C)C(=O)CC[C@@H]12 [Androstendione]
- collision cross section (N2) ([M-H]-): 172.77 Å²

SMILES: C[C@]12CC[C@@H](O)C[C@@H]1CC[C@@H]1[C@@H]2CC[C@]2(C)C(=O)CC[C@@H]12 [Androsterone]
- collision cross section (N2) ([M+H-H2O]+): 166.6 Å²

SMILES: COC(=O)[C@H](Cc1ccccc1)NC(=O)[C@@H](N)CC(=O)O [Aspartame]
- collision cross section (N2) ([M+H]+): 169.6 Å²
- collision cross section (N2) ([M-H]-): 166.71 Å²

SMILES: O=C1CC(=O)NC(=O)N1 [Barbituric acid]
- collision cross section (N2) ([M-H]-): 112.69 Å²

SMILES: C[C@]12CC[C@@H]3c4ccc(O)cc4CC[C@H]3[C@@H]1CC[C@@H]2O [Beta-Estradiol]
- collision cross section (N2) ([M-H]-): 173.34 Å²

SMILES: C=CC1=C(C)/C(=C/c2[nH]c(Cc3[nH]c(/C=C4\NC(=O)C(C)=C4C=C)c(C)c3CCC(=O)O)c(CCC(=O)O)c2C)NC1=O [Bilirubin]
- collision cross section (N2) ([M-H]-): 247.18 Å²

SMILES: Nc1ccn([C@@H]2O[C@H](COP(=O)(O)OP(=O)(O)O)[C@@H](O)[C@H]2O)c(=O)n1 [CDP]
- collision cross section (N2) ([M+H]+): 175.1 Å²

SMILES: CCCCCCCCCC(=O)O [Capric acid]
- collision cross section (N2) ([M-H]-): 146.87 Å²

SMILES: O=C(/C=C/c1ccc(O)c(O)c1)O[C@@H]1C[C@](O)(C(=O)O)C[C@@H](O)[C@H]1O [Chlorogenic acid]
- collision cross section (N2) ([M+H]+): 185.1 Å²
- collision cross section (N2) ([M+Na-2H]-): 173.79 Å²

SMILES: C[C@H](CCC(=O)O)[C@H]1CC[C@H]2[C@@H]3[C@H](O)C[C@@H]4C[C@H](O)CC[C@]4(C)[C@H]3C[C@H](O)[C@]12C [Cholic acid]
- collision cross section (N2) ([M+Na]+): 197.3 Å²
- collision cross section (N2) ([M-H]-): 200.72 Å²

SMILES: CC(C)(COP(=O)(O)OP(=O)(O)OC[C@H]1O[C@@H](n2cnc3c(N)ncnc32)[C@H](O)[C@@H]1OP(=O)(O)O)[C@@H](O)C(=O)NCCC(=O)NCCS [Coenzyme A]
- collision cross section (N2) ([M+H]+): 240.4 Å²
- collision cross section (N2) ([M-H]-): 241.54 Å²

SMILES: C[C@]12CCC(=O)C=C1CC[C@@H]1[C@@H]2CC[C@@]2(C)[C@H]1CC[C@]2(O)C(=O)CO [Cortexolone]
- collision cross section (N2) ([M+H]+): 187.4 Å²

SMILES: C[C@]12C[C@H](O)[C@H]3[C@@H](CCC4=CC(=O)CC[C@@]43C)[C@@H]1CC[C@@H]2C(=O)CO [Corticosterone]
- collision cross section (N2) ([M+H]+): 186.8 Å²
- collision cross section (N2) ([M-H]-): 186.46 Å²

SMILES: COc1cc(/C=C/C(=O)CC(=O)/C=C/c2ccc(O)c(OC)c2)ccc1O [Curcumin]
- collision cross section (N2) ([M+H]+): 201.6 Å²
- collision cross section (N2) ([M+Na-2H]-): 178.82 Å²
